Tests used:
Assay in all cases: relative viability (nuclei count vs DMSO), 5 days (fraction); higher = more cells survive
[1] = test system: NCI-H2347
Summary of the method: (§1)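 The day after seeding in 1536-well plates, lung cancer cell lines were treated by pin tool with a single drug, or with a fixed anchor-drug dose together with five library-drug doses (not always all listed) in √10 steps. After 5 days, a combined fix-and-stain solution (final 0.05% Triton X-100, 1% formaldehyde, 1 ug/ml Hoechst) was added. Nuclei counted on 4× images gave relative viability as treated counts over vehicle counts, reported as the median of duplicate plates.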

[2] = test system: LCLC-103H
Summary of the method: as §1

[3] = test system: NCI-H727
Summary of the method: as §1

[4] = test system: NCI-H2170
Summary of the method: as §1

[5] = test system: NCI-H520
Summary of the method: as §1

[6] = test system: NCI-H661
Summary of the method: as §1

[7] = test system: NCI-H650
Summary of the method: as §1

[8] = test system: NCI-H3122
Summary of the method: as §1

[9] = test system: RERF-LC-KJ
Summary of the method: as §1

[10] = test system: NCI-H1755
Summary of the method: as §1

[11] = test system: SK-MES-1
Summary of the method: as §1

[12] = test system: NCI-H522
Summary of the method: as §1

`COc1cc(N2CCC(C(N)=O)CC2)ccc1Nc1nc(N)c(Cl)c(Nc2ccccc2S(=O)(=O)C(C)C)n1` [HG-5-88-01] + Nc1ncn([C@H]2C[C@H](O)[C@@H](CO)O2)c(=O)n1 [Decitabine] (partner 2 µM) gave a relative viability ([1]; first compound 0.04 µM) of 0.632, a relative viability ([1]; first compound 0.1265 µM) of 0.637 and a relative viability ([1]; first compound 0.4 µM) of 0.729. The relative viability ([1]; first compound 1.265 µM) was 0.672, the relative viability ([1]; first compound 4 µM) was 0.645 and the relative viability ([2]; first compound 0.04 µM) was 0.776. The relative viability ([2]; first compound 0.1265 µM) was 0.735, the relative viability ([2]; first compound 0.4 µM) was 0.738 and the relative viability ([2]; first compound 1.265 µM) was 0.713. The relative viability ([2]; first compound 4 µM) was 0.74, the relative viability ([3]; first compound 0.04 µM) was 0.913 and the relative viability ([3]; first compound 0.1265 µM) was 0.789. The relative viability ([3]; first compound 0.4 µM) was 0.837, the relative viability ([3]; first compound 4 µM) was 0.672 and the relative viability ([4]; first compound 0.04 µM) was 0.461. The relative viability ([4]; first compound 0.1265 µM) was 0.479, the relative viability ([4]; first compound 0.4 µM) was 0.509 and the relative viability ([4]; first compound 1.265 µM) was 0.439. For the same compound, the relative viability ([4]; first compound 4 µM) was 0.486, the relative viability ([5]; first compound 0.04 µM) was 0.483 and the relative viability ([5]; first compound 0.1265 µM) was 0.478. The relative viability ([5]; first compound 0.4 µM) was 0.584, the relative viability ([5]; first compound 1.265 µM) was 0.516 and the relative viability ([5]; first compound 4 µM) was 0.538. It also gave a relative viability ([6]; first compound 0.04 µM) of 0.54, a relative viability ([6]; first compound 0.1265 µM) of 0.595 and a relative viability ([6]; first compound 0.4 µM) of 0.653. The relative viability ([6]; first compound 1.265 µM) was 0.515, the relative viability ([6]; first compound 4 µM) was 0.56 and the relative viability ([7]; first compound 0.04 µM) was 0.357. For the same compound, the relative viability ([7]; first compound 0.1265 µM) was 0.328, the relative viability ([7]; first compound 0.4 µM) was 0.435 and the relative viability ([7]; first compound 1.265 µM) was 0.366. The relative viability ([7]; first compound 4 µM) was 0.306, the relative viability ([8]; first compound 0.04 µM) was 0.365 and the relative viability ([8]; first compound 0.1265 µM) was 0.279. It also gave a relative viability ([8]; first compound 0.4 µM) of 0.223, a relative viability ([8]; first compound 1.265 µM) of 0.127 and a relative viability ([8]; first compound 4 µM) of 0.0935. For the same compound, the relative viability ([9]; first compound 0.04 µM) was 0.736, the relative viability ([9]; first compound 0.1265 µM) was 0.737 and the relative viability ([9]; first compound 0.4 µM) was 0.7. The relative viability ([9]; first compound 1.265 µM) was 0.781, the relative viability ([9]; first compound 4 µM) was 0.528 and the relative viability ([10]; first compound 0.04 µM) was 0.739. The relative viability ([10]; first compound 0.1265 µM) was 0.732, the relative viability ([10]; first compound 0.4 µM) was 0.829 and the relative viability ([10]; first compound 1.265 µM) was 0.688. The relative viability ([10]; first compound 4 µM) was 0.836, the relative viability ([11]; first compound 0.04 µM) was 0.408 and the relative viability ([11]; first compound 0.1265 µM) was 0.368. It also gave a relative viability ([11]; first compound 0.4 µM) of 0.407, a relative viability ([11]; first compound 1.265 µM) of 0.459 and a relative viability ([11]; first compound 4 µM) of 0.34. It also gave a relative viability ([12]; first compound 0.04 µM) of 0.702, a relative viability ([12]; first compound 0.1265 µM) of 0.773 and a relative viability ([12]; first compound 0.4 µM) of 0.69.
